The values below come from patent publication US10913721B2, “Crystalline form of aripiprazole” (Noratech Pharmaceuticals, Inc., priority 2016, dated 2021).

A short description of data set [1]: Comparison test for the dissolution rate of crystalline forms of aripiprazole. In kind it is physicochemical. To be noted: 0.25% sodium dodecyl sulfate solution (900 mL), slurry method, 50 rpm, 37° C.±0.5° C.; 15-360 min; compared with hydrate A and the conventional hydrate (FIG. 7). On the procedure: Sample preparation: Powders of crystalline form N, hydrate A and the conventional hydrate of aripiprazole are respectively sieved through a 100-mesh sieve, and the appropriate amount of sieved material (equivalent to 50 mg of aripiprazole) is taken and measured to determine the dissolution rate of each sample.
Dissolution conditions: 0.25% sodium dodecyl sulfate solution (900 mL): slurry method: 50 rpm; 37° C.±0.5° C.
Sample detection: Samples of 3 ml are respectively taken at 15, 30, 60, 90, 120, 240, and 360 min, and immediately littered through a 0.45 μm microporous membrane, 2 mL of the initial filtrate is discarded, and the drug concentration in the subsequent filtrate is measured.

The conditions of data set [2]: as stated in WO 03/026659; cited from earlier work.

Molecules are shown by their SMILES. Entries after “also recorded” stand apart in the source; their conditions may differ.

Turning to `O=C1CCc2ccc(OCCCCN3CCN(c4cccc(Cl)c4Cl)CC3)cc2N1` [Crystalline form N, 7-{4-[4-(2,3-dichlorophenyl)-1-piperazinyl]-butoxy}-3,4-dihydroquinolone], the “dissolution rate (release rate)” value in data set [1] is given as “slower release rate; also recorded: slower dissolution rate”. Take `O=C1CCc2ccc(OCCCCN3CCN(c4cccc(Cl)c4Cl)CC3)cc2N1` [type-I crystals]: the hygroscopicity result in data set [2] was “significant hygroscopicity”.
